Assay results as given in patent US5391540A, “Substituted pyridine compounds” (Rohm and Haas Company, priority 1993, dated 1995).

Assays:
Test in all cases: Pre-emergent herbicidal activity (Table A)
Type in all cases: in vivo
Morningglory = conditions: Ipomoea, pre-emergence, Mogl, 11.2 kg/ha, 10-14 days, read-out: herbicidal rating (% inhibition)
Description: (§1) The herbicidal ratings used in Tables A and B were assigned according to a scale based on the percent inhibition of each plant species. The herbicide rating symbols in Tables A and B are defined as follows: […]
(§2) One set of pre-emergent tests was conducted as follows:
(§3) Topsoil was placed in a pan and compacted to a depth of 0.95 to 1.27 cm. from the top of the pan. A predetermined number of seeds of each of several monocotyledonous and dicotyledonous annual plant species and/or vegetative propagules of various perennial plant species were placed on top of the soil. The soil required to level fill a pan after seeding or adding vegetative propagules was weighed into another pan. A known amount of the test compound dissolved or suspended in an organic solvent or water and applied in acetone or water as a carrier was thoroughly mixed with this cover soil, and the herbicide/soil mixture was used as a cover layer for the previously prepared pan.
(§4) The plant species usually regarded as weeds which were utilized in one set of pre-emergent activity tests, the data for which are shown in Table A, are identified by letter headings printed diagonally above the columns according to the following legend: […]

Pennsylvania Smartweed = conditions: pre-emergence, Pesw, 11.2 kg/ha, 10-14 days, read-out: herbicidal rating (% inhibition)
Description: as §1, §2, §3, §4

Velvetleaf = conditions: Abutilon theophrasti, pre-emergence, Vele, 11.2 kg/ha, 10-14 days, read-out: herbicidal rating (% inhibition)
Description: as §1, §2, §3, §4

Barnyardgrass = conditions: Echinochloa crus-galli, pre-emergence, Bygr, 11.2 kg/ha, 10-14 days, read-out: herbicidal rating (% inhibition)
Description: as §1, §2, §3, §4

Canada thistle = conditions: Cirsium arvense, pre-emergence, Cath, 11.2 kg/ha, 10-14 days, read-out: herbicidal rating (% inhibition)
Description: as §1, §2, §3, §4

Common Lambsquarters = conditions: Chenopodium album, pre-emergence, Colq, 11.2 kg/ha, 10-14 days, read-out: herbicidal rating (% inhibition)
Description: as §1, §2, §3, §4

Downy Brome = conditions: Bromus tectorum, pre-emergence, Dobr, 11.2 kg/ha, 10-14 days, read-out: herbicidal rating (% inhibition)
Description: as §1, §2, §3, §4

Quackgrass = conditions: pre-emergence, Rhqg, 11.2 kg/ha, 10-14 days, read-out: herbicidal rating (% inhibition)
Description: as §1, §2, §3, §4

Cocklebur = conditions: Xanthium strumarium, pre-emergence, Cobu, 11.2 kg/ha, 10-14 days, read-out: herbicidal rating (% inhibition)
Description: as §1, §2, §3, §4

Yellow Nutsedge = conditions: Cyperus, pre-emergence, Yens, 11.2 kg/ha, 10-14 days, read-out: herbicidal rating (% inhibition)
Description: as §1, §2, §3, §4

Rhizome Johnsongrass = conditions: Sorghum halepense, pre-emergence, Rhjg, 11.2 kg/ha, 10-14 days, read-out: herbicidal rating (% inhibition)
Description: as §1, §2, §3, §4

Row | SMILES | inhibition at 11200 g/ha (Morningglory) | inhibition at 11200 g/ha (Pennsylvania Smartweed) | inhibition at 11200 g/ha (Velvetleaf) | inhibition at 11200 g/ha (Barnyardgrass) | inhibition at 11200 g/ha (Canada thistle) | inhibition at 11200 g/ha (Common Lambsquarters) | inhibition at 11200 g/ha (Downy Brome) | inhibition at 11200 g/ha (Quackgrass) | inhibition at 11200 g/ha (Cocklebur) | inhibition at 11200 g/ha (Yellow Nutsedge) | inhibition at 11200 g/ha (Rhizome Johnsongrass)
1 | COC(=O)c1c(OCC#N)nc(C(F)(F)F)c(C(=O)OC)c1CC(C)C [Compound 80, 3,5-pyridinedicarboxylic acid, 2-(cyanomethoxy)-4-(2-methylpropyl)-6-(trifluoromethyl)-, dimethyl ester] | 75 to 100% | 75 to 100% | 75 to 100% | 75 to 100% | 75 to 100% | 75 to 100% | 75 to 100% | 25 to 49% | 25 to 49% | 50 to 74% | –
2 | CCOc1nc(C(F)(F)F)c(C(=O)OC)c(CC(C)C)c1C(=O)N(C)C [Compound 17, 3-pyridinecarboxylic acid, 5-[(dimethylamino)carbony]-6-ethoxy-4-(2-methylpropyl)-2-(trifluoromethyl)-, methyl ester] | 0 to 24% | 0 to 24% | 0 to 24% | 75 to 100% | 0 to 24% | 50 to 74% | – | 0 to 24% | 0 to 24% | 0 to 24% | 0 to 24%
3 | C#CCOC(=O)c1c(C(F)(F)F)nc(OC)c(C(=O)OC)c1CC(C)C [Compound 82, 3,5-pyridinedicarboxylic acid, 2-methoxy-4-(2-methylpropyl)-6-(trifluoromethyl)-, 3-methyl 5-(2-propynyl)ester] | 75 to 100% | 75 to 100% | 75 to 100% | 75 to 100% | 75 to 100% | 75 to 100% | 75 to 100% | 50 to 74% | 50 to 74% | 25 to 49% | –
4 | COC(=O)c1c(OC)nc(C(F)(F)F)c(C(=O)OC)c1CBr [Compound 87, 3,5-pyridinedicarboxylic acid, 4-(bromomethyl)-2-methoxy-6-(trifluoromethyl)-, dimethyl ester] | 0 to 24% | – | 0 to 24% | 0 to 24% | 0 to 24% | 50 to 74% | 0 to 24% | 0 to 24% | 0 to 24% | 0 to 24% | 0 to 24%
5 | COC(=O)c1c(OC)nc(C(F)(F)F)c(C(=O)OCCF)c1CC(C)C [Compound 81, 3,5-pyridinedicarboxylic acid, 2-methoxy-4-(2-methylpropyl)-6-(trifluoromethyl)-, 5-(2-fluoroethyl) 3-methyl ester] | 75 to 100% | 75 to 100% | 75 to 100% | 75 to 100% | 75 to 100% | 75 to 100% | 75 to 100% | 75 to 100% | 75 to 100% | 75 to 100% | –
6 | CCOc1nc(C(F)(F)F)c(C(=O)OC)c(CC(C)C)c1C(=O)O [Compound 18, 3,5-pyridinedicarboxylic acid, 2-ethoxy-4-(2-methylpropyl)-6-(trifluoromethyl)-, 5-methyl ester] | 0 to 24% | 0 to 24% | 0 to 24% | 0 to 24% | 0 to 24% | 50 to 74% | – | 0 to 24% | 25 to 49% | 0 to 24% | 0 to 24%
7 | CCOc1nc(C(F)(F)F)c(C(=O)SC)c(CC(C)C)c1C(=O)SC [Compound 19, 3,5-pyridinedicarbothioic acid, 2-ethoxy-4-(2-methylpropyl)-6-(trifluoromethyl)-, S,S-dimethyl ester] | 50 to 74% | 75 to 100% | 75 to 100% | 75 to 100% | 25 to 49% | 75 to 100% | – | 75 to 100% | 25 to 49% | 0 to 24% | 0 to 24%
